In patent US20260345595A1, “NOVEL FLUORENE DERIVATIVE COMPOUND AND USE THEREOF” (JD BIOSCIENCE INC., priority 2022, published 2026):

Key:
[1] = test system: cancer cells; experiment: Growth inhibition of cancer cells, Cell Counting Kit-8; format: cell-based; details: 24 hours, 0.5% FBS; FIGS. 16 to 20
Description: In order to verify the growth inhibitory effect of Compound 1 on various normal and cancer cell lines, 25 types of cell lines listed in Table 7 below were tested. In detail, each cell was seeded at a density of 2×10^4 cells/well in a 96-well plate and cultured for 24 hours, and then the medium was replaced with a medium comprising 0.5% (for cancer cells) or 10% (for normal cells) FBS, and Compound 1 was treated at various concentrations. 24 hours later, 10 μL of Cell Counting Kit-8 (Dojindo Molecular Technologies) was added, and 1 hour later, absorbance at 480 nm was measured using a microplate reader (TECAN SPARK), and the results are shown in FIGS. 15 to 21.

[2] = test system: LPS-induced sepsis in C57BL6J mice; experiment: LPS-induced sepsis animal model, viability; format: in vivo, mouse; details: for Viability: 15 mg/kg i.p. before 50 mg/kg LPS
Description: 50 mg/kg of lipopolysaccharide (LPS) administration dose corresponds to the ‘half lethal dose’ that causes death of one half of the population within 24 hours. […] The animal experiment was conducted with six 8-week-old male C57BL6J mice per group. Each mouse was intraperitoneally administered 15 mg/kg of Compound 1 or pretreated with 100 μL of 10% DMSO (vehicle control). 30 minutes later, 50 mg/kg lipopolysaccharide was intraperitoneally injected into each mouse, and the viability was examined for 80 hours, and the results are shown in FIG. 9 and Table 2.

[3] = test system: acute kidney ischemic reperfusion (IR) injury in C57BL6J mice; experiment: Acute kidney ischemic reperfusion (IR) injury animal model; format: in vivo, mouse; details: 4 μg/kg and 8 μg/kg, tail vein
Description: Vehicle and Compound 1 (4 μg/kg or 8 μg/kg) were administered to 8-week-old male C57BL6J mice via the tail vein 24 hours before, 1 hour before, and 12 hours after ischemic reperfusion (IR) surgery. The surgery was performed by blocking the artery leading to the kidney to induce ischemia for 37 minutes. The blocked artery was released, and 24 hours later, the mice were anesthetized and autopsied. Other part was used to synthesize cDNA, and a kidney damage marker, NGAL was identified by real-time PCR. And serum was separated from the blood, and creatinine, which is a kidney damage marker in the serum, was examined, and the results are shown in FIG. 3.

[4] = test system: DSS-induced colitis in C57BL6J JmcSlc mice; experiment: DSS colitis, inflammatory bowel disease animal model; format: in vivo, mouse; details: for colonic epithelial cell recovery (H&E): FIG. 6A
Description: Colitis was induced in 8-week-old male C57BL6J JmcSlc mice by feeding 3.5% dextran sodium sulfate (DSS) ad libitum for 9 days, and then replacing the same with normal drinking water. The vehicle and Compound 1 (0.5 mg/kg or 1 mg/kg) were orally administered to the experimental animal model prepared as described above daily from 2 days before DSS drinking until the end of drinking. In order to determine the degree of colonic inflammation, the degree of longitudinal contraction of the isolated colon was measured, and the histological scores were confirmed through H&E staining, which is shown in FIG. 6. Furthermore, total RNA was isolated from the isolated colon, cDNA was synthesized, and the expression levels of representative cytokines (IFNγ, IL-1β, IL-4, IL-6, IL-10, IL-12β, IL-17α, and TNFα) were measured and compared using qPCR, and the results are shown in FIG. 7.

[5] = test system: cerulein-induced acute pancreatitis in mice; experiment: Cerulein-induced acute pancreatitis animal model; format: in vivo, mouse; details: 5 μg/kg or 10 μg/kg, tail vein; versus Cerulein; FIG. 8
Description: Acute pancreatitis was induced by intraperitoneal administration of cerulein (50 μg/kg) dissolved in saline to 8-week-old male mice. Compound 1 was administered at a concentration of 5 μg/kg or 10 μg/kg into the tail vein 24 hours and 1 hour before cerulein administration, and cerulein was intraperitoneally administered six times at 1-hour intervals. 18 hours after the first cerulein administration, the mice were anesthetized, the serum was separated, and the amylase and lipase activities in the serum were measured, which are shown in FIG. 8.

[6] = test system: Mfn2−/− MEF cells; experiment: Mitochondrial oxygen consumption rate, Charcot-Marie-Tooth disease model; format: cell-based, mouse; details: 1 μM, 24 hours, FIG. 13
Description: To verify the functional loss due to mutation of MFN2 present in the outer mitochondrial membrane, which is the main cause of Charcot-Marie-Tooth disease, the mitochondrial oxygen consumption rate (OCR) was measured. In detail, Mfn2^+/^+MEF cells (normal cells), which are mouse embryonic fibroblasts expressing Mfn2, and Mfn2/MEF cells not expressing Mfn2 were cultured at a density of 1×10^4 for 24 hours in a Seahorse […] culture dish using a DMEM medium supplemented with 10% FBS and penicillin/streptomycin. The cells were treated with DMSO as a vehicle and Compound 1 (1 μM) and cultured for another 24 hours. The mitochondrial oxygen consumption rate was measured using a Seahorse XFe96 analyzer (Agilent Technologies), and the results are shown in FIG. 13.

[7] = test system: NCI-H295R cells; experiment: Cortisol production, Cushing's syndrome cell model, ELISA; format: cell-based, human; details: 0.1, 0.5 and 1 μM; 8-Br-cAMP 0.5 mM; FIG. 14
Description: NCI-H295R cells (ATCC #CRL-2128), which are a human adrenocortical carcinoma cell line, were seeded at a density of 2.5×10^5 cells/well in a 24-well plate. The cells were cultured for 48 hours, and then they were pretreated with Compound 1 (0.1 μM, 0.5 μM, and 1 μM) for 12 hours. Furthermore, to increase cortisol synthesis, the cells were treated with 8-bromoadenosine […] (8-Br-CAMP) at a concentration of 0.5 mM, and then re-treated with Compound 1, and allowed to react for 24 hours. After the reaction, the cell culture medium was collected, and the amount of cortisol produced in the cells was measured using an ELISA kit, and the results are shown in FIG. 14.

[8] = versus vehicle-treated IR, FIG. 2
[9] = colon tissue, qPCR, versus vehicle, FIG. 7

In the case of `CC(C(=O)NNc1ccc(F)cc1)n1cc(-c2cc(F)cc3c2-c2ccccc2C3(O)C(F)(F)F)cn1` (stereo not drawn) [Compound 1, 2-(4-(2-fluoro-9-hydroxy-9-(trifluoromethyl)-9H-fluoren-4-yl)-1H-pyrazol-1-yl)-N′-(4-fluorophenyl)propanehydrazide], the “viability of cancer cells (in words)” value [1] is reported as “decreased the viability of cancer cells in a concentration-dependent manner”, the Viability ([2]; 0 h) is reported as 100% and the Viability ([2]; 20 h) is reported as 100%. For the same compound, the Viability ([2]; 24 h) was 83.3%, the Viability ([2]; 28 h) was 83.3% and the Viability ([2]; 32 h) was 83.3%. It also gave a Viability ([2]; 36 h) of 66.7%, a Viability ([2]; 40 h) of 66.7% and a Viability ([2]; 44 h) of 66.7%. It also gave a Viability ([2]; 48 h) of 66.7%, a Viability ([2]; 50 h) of 66.7% and a Viability ([2]; 60 h) of 50%. For the same compound, the Viability ([2]; 70 h) was 50%, the Viability ([2]; 80 h) was 50% and the “viability in sepsis-induced animal model (in words)” value ([2]; 15 mg/kg i.p., p<0.01 versus LPS+vehicle, FIG. 9) was “had the effect of improving the viability”. For the same compound, the “NGAL RNA expression” value ([3]; kidney, real-time PCR, p<0.01 versus IR+Vehicle, FIG. 3) was “significantly reduced”, the serum creatinine ([3]; p<0.01 versus IR+Vehicle, FIG. 3) was “significantly reduced” and the “apoptosis (TUNEL staining) of kidney tissue” value [3, 8] was “significant reduction in the apoptosis”. For the same compound, the “renal tubular tissue damage (H&E staining)” value [3, 8] was “significant reduction in the renal tubular tissue damage”, the “longitudinal contraction of colon” value ([4]; 0.5 mg/kg and 1 mg/kg, oral daily, versus vehicle, FIGS. 6C and 6D) was “the contraction was alleviated both in the group administered 0.5 mg/kg of Compound 1 and in the group administered 1 mg/kg of Compound 1, as compared to the vehicle administration group, and the effect increased as the administration amount increased” and the “colonic epithelial cell recovery (H&E)” value ([4]; 0.5 mg/kg, oral daily) was “the recovery was slight”. For the same compound, the “colonic epithelial cell recovery (H&E)” value ([4]; 1 mg/kg, oral daily) was “remarkable epithelial cell recovery”, the “tissue (histological) score” value ([4]; 1 mg/kg, oral daily, FIG. 6B) was “the lowest score” and the “IFNγ mRNA expression” value [4, 9] was “significantly reduced”. The “IL-4 mRNA expression” value [4, 9] was “increased”, the “IL-6 mRNA expression” value [4, 9] was “significantly reduced” and the “IL-12b mRNA expression” value [4, 9] was “significantly reduced”. For the same compound, the “IL-17a mRNA expression” value [4, 9] was “significantly reduced”, the “TNFα mRNA expression” value [4, 9] was “significantly reduced” and the serum amylase activity [5] was “decreased by administration of Compound 1 in a dose-dependent manner”. For the same compound, the serum lipase activity [5] was “decreased by administration of Compound 1 in a dose-dependent manner”, the “mitochondrial oxygen consumption rate (OCR)” value [6] was “markedly restored to a level comparable to that of normal cells” and the cortisol production [7] was “significantly inhibited by the administration of Compound 1, and this inhibition showed a concentration-dependent tendency”.
